In patent US6737383B1, “Herbicidal oxadiazolidines” (priority 1999, dated 2004):

What was measured:
morningglory = experiment: Test B pre/postemergence morningglory; assay type: in vivo, Ipomoea hederacea
Outline: (§1)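 Response is a visual 0-to-10 score relative to untreated plants, where 0 means no effect and 10 means complete control, taken twelve to sixteen days after application. Treatments went onto soil at planting and onto foliage of 1- to 4-leaf plants, using a surfactant-containing non-phytotoxic solvent.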

duck salad = experiment: Test B flood test duck salad; assay type: in vivo, Heteranthera limosa; conditions: for Plant response rating, Ducksalad: scale 0 to 10, 0 is no effect, 10 is complete control; for Ducksalad plant response rating: scale of 0 to 10 where 0 is no effect and 10 is complete control
Outline: (§2)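 Each value is a visual injury score relative to controls, with 10 meaning complete control and 0 no effect. Evaluation took place twelve to sixteen days after the 2-leaf-stage plants were treated and kept in the greenhouse.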

smallflower flatsedge = experiment: Test B flood test smallflower flatsedge; assay type: in vivo, Cyperus difformis; conditions: for S. Flatsedge plant response rating: scale of 0 to 10 where 0 is no effect and 10 is complete control
Outline: as §2

velvetleaf = experiment: Test B pre/postemergence velvetleaf; assay type: in vivo, Abutilon theophrasti
Outline: as §1

wild oat = experiment: Test B pre/postemergence wild oat; assay type: in vivo, Avena fatua
Outline: as §1

giant foxtail = experiment: Test B pre/postemergence giant foxtail; assay type: in vivo, Setaria faberii
Outline: as §1

rice = experiment: Test B flood test rice; assay type: in vivo, Oryza sativa; conditions: for Rice plant response rating: scale of 0 to 10 where 0 is no effect and 10 is complete control
Outline: as §2

soybean = experiment: Test B pre/postemergence soybean; assay type: in vivo, Glycine max
Outline: as §1

rape = experiment: Test B pre/postemergence rape; assay type: in vivo, Brassica napus
Outline: as §1

corn = experiment: Test B pre/postemergence corn; assay type: in vivo, Zea mays
Outline: as §1

blackgrass = experiment: Test B pre/postemergence blackgrass; assay type: in vivo, Alopecurus myosuroides
Outline: as §1

cocklebur = experiment: Test B pre/postemergence cocklebur; assay type: in vivo, Xanthium strumarium
Outline: as §1

surinam grass = experiment: Test B pre/postemergence surinam grass; assay type: in vivo, Brachiaria decumbens
Outline: as §1

pigweed = experiment: Test B pre/postemergence pigweed; assay type: in vivo, Amaranthus retroflexus
Outline: as §1

sugar beet = experiment: Test B pre/postemergence sugar beet; assay type: in vivo, Beta vulgaris
Outline: as §1

wheat = experiment: Test B pre/postemergence wheat; assay type: in vivo, Triticum aestivum
Outline: as §1

[1] = Postemergence, Rate 250 g/ha, scale 0 to 10, 0 is no effect, 10 is complete control
[2] = Postemergence, Rate 500 g/ha, scale of 0 to 10 where 0 is no effect and 10 is complete control
[3] = Preemergence, Rate 62 g/ha, scale 0 to 10 (0 no effect, 10 complete control)
[4] = Preemergence, Rate 125 g/ha, scale of 0 to 10 where 0 is no effect and 10 is complete control
[5] = Preemergence, Rate 250 g/ha, scale 0 to 10, 0 is no effect, 10 is complete control
[6] = Preemergence, Rate 500 g/ha, scale 0 to 10, 0 is no effect, 10 is complete control
[7] = Rate 62 g/ha, Postemergence, scale of 0 to 10 where 0 is no effect and 10 is complete control
[8] = Postemergence section (flood test species), Rate 500 g/ha
[9] = Rate 62 g/ha, Postemergence (flood test species)
[10] = flood test species, listed under Postemergence, Rate 250 g/ha, scale 0 to 10, 0 is no effect, 10 is complete control
[11] = Postemergence, Rate 125 g/ha, scale 0 to 10, 0 is no effect, 10 is complete control
[12] = Preemergence, Rate 250 g/ha, scale of 0 to 10 where 0 is no effect and 10 is complete control

`CCOC(=O)C=C(Cn1c(=O)on(C(=O)N(c2ccc(F)cc2)C(C)C)c1=O)OCC` [Compound 396] was tested, and the “Plant response rating, Morningglory” value (morningglory; [1]) was 8, the “Morningglory plant response rating” value (morningglory; [2]) was 8 and the “Plant response rating, Morningglory” value (morningglory; [3]) was 0. The “Plant response rating, Morningglory” value (morningglory; [4]) was 0, the “Morningglory plant response rating” value (morningglory; [5]) was 0 and the “Morningglory plant response rating” value (morningglory; [6]) was 0. For the same compound, the “Morningglory plant response rating” value (morningglory; [7]) was 0, the “Plant response rating, Ducksalad” value (duck salad; Postemergence (flood test), Rate 125 g/ha) was 0 and the “Ducksalad plant response rating” value (duck salad; [8]) was 0. For the same compound, the “Ducksalad plant response rating” value (duck salad; [9]) was 0, the “Plant response rating, Ducksalad” value (duck salad; flood test species, listed under Postemergence, Rate 250 g/ha) was 0 and the “S. Flatsedge plant response rating” value (smallflower flatsedge; [8]) was 0. The “S. Flatsedge plant response rating” value (smallflower flatsedge; [9]) was 0, the “Plant response rating, S. Flatsedge” value (smallflower flatsedge; [10]) was 0 and the “Plant response rating, Velvetleaf” value (velvetleaf; [1]) was 0. The “Velvetleaf plant response rating” value (velvetleaf; [2]) was 0, the “Plant response rating, Velvetleaf” value (velvetleaf; [3]) was 0 and the “Plant response rating, Velvetleaf” value (velvetleaf; [4]) was 0. The “Velvetleaf plant response rating” value (velvetleaf; [5]) was 0, the “Velvetleaf plant response rating” value (velvetleaf; [6]) was 0 and the “Velvetleaf plant response rating” value (velvetleaf; [7]) was 0. The “Wild oats plant response rating” value (wild oat; [2]) was 0, the “Plant response rating, Wild oats” value (wild oat; [3]) was 0 and the “Plant response rating, Wild oats” value (wild oat; [4]) was 0. For the same compound, the “Wild oats plant response rating” value (wild oat; [5]) was 2, the “Wild oats plant response rating” value (wild oat; [6]) was 4 and the “Wild oats plant response rating” value (wild oat; [7]) was 0. For the same compound, the “Plant response rating, Giant foxtail” value (giant foxtail; [11]) was 0, the “Plant response rating, Giant foxtail” value (giant foxtail; [1]) was 2 and the “Giant foxtail plant response rating” value (giant foxtail; [2]) was 2. For the same compound, the “Plant response rating, Giant foxtail” value (giant foxtail; [3]) was 2, the “Plant response rating, Giant foxtail” value (giant foxtail; [4]) was 10 and the “Giant foxtail plant response rating” value (giant foxtail; [5]) was 10. The “Giant foxtail plant response rating” value (giant foxtail; [6]) was 10, the “Giant foxtail plant response rating” value (giant foxtail; [7]) was 0 and the “Rice plant response rating” value (rice; [8]) was 0. The “Rice plant response rating” value (rice; [9]) was 0, the “Plant response rating, Rice” value (rice; [10]) was 0 and the “Plant response rating, Soybean” value (soybean; [1]) was 3. For the same compound, the “Soybean plant response rating” value (soybean; [2]) was 6, the “Plant response rating, Soybean” value (soybean; [3]) was 0 and the “Plant response rating, Soybean” value (soybean; [4]) was 0. The “Soybean plant response rating” value (soybean; [5]) was 0, the “Soybean plant response rating” value (soybean; [6]) was 0 and the “Soybean plant response rating” value (soybean; [7]) was 2. The “Plant response rating, Rape” value (rape; [1]) was 0, the “Rape plant response rating” value (rape; [2]) was 6 and the “Plant response rating, Rape” value (rape; [3]) was 0. The “Plant response rating, Rape” value (rape; [4]) was 0, the “Rape plant response rating” value (rape; [5]) was 0 and the “Rape plant response rating” value (rape; [6]) was 0. The “Rape plant response rating” value (rape; [7]) was 0, the “Plant response rating, Corn” value (corn; [11]) was 0 and the “Plant response rating, Corn” value (corn; [1]) was 0. For the same compound, the “Corn plant response rating” value (corn; [2]) was 0, the “Plant response rating, Corn” value (corn; [3]) was 0 and the “Plant response rating, Corn” value (corn; [4]) was 0. For the same compound, the “Corn plant response rating” value (corn; [5]) was 0, the “Corn plant response rating” value (corn; [6]) was 0 and the “Corn plant response rating” value (corn; [7]) was 0. For the same compound, the “Plant response rating, Blackgrass” value (blackgrass; [11]) was 2, the “Plant response rating, Blackgrass” value (blackgrass; [1]) was 3 and the “Blackgrass plant response rating” value (blackgrass; [2]) was 6. For the same compound, the “Plant response rating, Blackgrass” value (blackgrass; [3]) was 0, the “Plant response rating, Blackgrass” value (blackgrass; [4]) was 0 and the “Blackgrass plant response rating” value (blackgrass; [12]) was 3. The “Blackgrass plant response rating” value (blackgrass; [6]) was 5, the “Blackgrass plant response rating” value (blackgrass; [7]) was 0 and the “Plant response rating, Cocklebur” value (cocklebur; [11]) was 0. The “Plant response rating, Cocklebur” value (cocklebur; [1]) was 0, the “Cocklebur plant response rating” value (cocklebur; [2]) was 0 and the “Plant response rating, Cocklebur” value (cocklebur; [3]) was 0. The “Plant response rating, Cocklebur” value (cocklebur; [4]) was 0, the “Cocklebur plant response rating” value (cocklebur; [5]) was 0 and the “Cocklebur plant response rating” value (cocklebur; [6]) was 0. The “Cocklebur plant response rating” value (cocklebur; [7]) was 0, the “Plant response rating, B. signalgrass” value (surinam grass; [11]) was 0 and the “Plant response rating, B. signalgrass” value (surinam grass; [1]) was 0. For the same compound, the “B. signalgrass plant response rating” value (surinam grass; [2]) was 0, the “Plant response rating, B. signalgrass” value (surinam grass; [3]) was 0 and the “Plant response rating, B. signalgrass” value (surinam grass; [4]) was 0. The “B. signalgrass plant response rating” value (surinam grass; [12]) was 3, the “B. signalgrass plant response rating” value (surinam grass; Preemergence, Rate 500 g/ha, scale of 0 to 10 where 0 is no effect and 10 is complete control) was 5 and the “B. signalgrass plant response rating” value (surinam grass; [7]) was 0. For the same compound, the “Plant response rating, Redroot pigweed” value (pigweed; [1]) was 0, the “Redroot pigweed plant response rating” value (pigweed; [2]) was 0 and the “Plant response rating, Redroot pigweed” value (pigweed; [3]) was 0. The “Plant response rating, Redroot pigweed” value (pigweed; [4]) was 0, the “Redroot pigweed plant response rating” value (pigweed; [5]) was 4 and the “Redroot pigweed plant response rating” value (pigweed; [6]) was 8. For the same compound, the “Redroot pigweed plant response rating” value (pigweed; [7]) was 0, the “Plant response rating, Sugarbeets” value (sugar beet; [1]) was 0 and the “Sugarbeets plant response rating” value (sugar beet; [2]) was 3. For the same compound, the “Plant response rating, Sugarbeets” value (sugar beet; [3]) was 0, the “Plant response rating, Sugarbeets” value (sugar beet; [4]) was 0 and the “Sugarbeets plant response rating” value (sugar beet; [5]) was 0. The “Sugarbeets plant response rating” value (sugar beet; [6]) was 2, the “Sugarbeets plant response rating” value (sugar beet; [7]) was 0 and the “Wheat plant response rating” value (wheat; [2]) was 0. The “Plant response rating, Wheat” value (wheat; [3]) was 0, the “Plant response rating, Wheat” value (wheat; [4]) was 0 and the “Wheat plant response rating” value (wheat; [5]) was 0. For the same compound, the “Wheat plant response rating” value (wheat; [6]) was 0 and the “Wheat plant response rating” value (wheat; [7]) was 0.
